The target in assay [1] is T1, FTase (Homo sapiens, UniProt P49356).
T1 construct: FTase and GGTase I activities from 60,000×g supernatants of human Burkitt lymphoma (Daudi) cells; endogenous in cells; host or cells: human Burkitt lymphoma (Daudi) cells, 60,000xg supernatant (partially purified)
Briefly: FTase activity assay: transfer of [3H]farnesyl from FPP to recombinant H-Ras-CVLS, Daudi 60,000xg supernatant. Conditions: for GG/F: ratio GGTase I IC50 / FTase IC50; for Selectivity: FTase over GGTase I. It counts as biochemical. How it is done:
FTase and GGTase I activities from 60,000×g supernatants of human Burkitt lymphoma (Daudi) cells (ATCC, Rockville, Md., USA) were assayed as described previously for FTase (41). Briefly, 100 μg of the supernatant was incubated in 50 mM Tris, pH 7.5, 50 μM ZnCl2, 20 mM KCl and 1 mM dithiothreitol (DTT).
Human Burkitt lymphoma (Daudi) cells (ATCC, Rockville, Md.) were grown in suspension in RPMI 1640 medium containing 10% fetal bovine serum (FBS) and 1% Pen-Strep in a humidified 10% CO2 incubator at 37° C. The cells were harvested and sonicated in 50 mM Tris, pH 7.5, 1 mM EDTA, 1 mM EGTA, 25 μg/ml leupeptin, 1 mM phenylmethylsulfonyl fluoride. Homogenates were then spun at 12,000×g and the resulting supernatant further spun at 60,000×g. The supernatant was assayed for both FTase and GGTase I. Briefly, 100 μg of the supernatants was incubated in 50 mM Tris, pH 7.5, 50 μM ZnCl2, 20 mM KCl, 3 mM MgCl2 and 1 mM DTT. […] FPP (625 nM; 16.3 Ci/mmol). For GGTase assays, the reaction was also incubated for 30 minutes at 37° C. but with recombinant H-Ras-CVLL (5 μM) and [^3 H] GGPP (525 nM; 19.0 Ci/mmol). The reaction was stopped and passed through glass fiber filters to separate free and incorporated label. For inhibition studies, the peptidomimetics were premixed with FTase or GGTase I prior to adding the remainder of the reaction mixture. […] Recombinant H-Ras-CVLL was prepared from bacteria (32).
FTase and GGTase I activities from 60,000×g supernatants of human Burkitt lymphoma (Daudi) cells (ATCC, Rockville, Md.) were assayed exactly as described previously for FTase (41).

Another assay addresses T2, GGTase I (Homo sapiens, UniProt P53609).
T2 construct: FTase and GGTase I activities from 60,000×g supernatants of human Burkitt lymphoma (Daudi) cells; endogenous in cells; host or cells: human Burkitt lymphoma (Daudi) cells, 60,000xg supernatant (partially purified)
Briefly: GGTase I activity assay: transfer of [3H]geranylgeranyl to recombinant H-Ras-CVLL, Daudi 60,000xg supernatant. Type of assay: biochemical. How it is done:
FTase and GGTase I activities from 60,000×g supernatants of human Burkitt lymphoma (Daudi) cells (ATCC, Rockville, Md., USA) were assayed as described previously for FTase (41). Briefly, 100 μg of the supernatant was incubated in 50 mM Tris, pH 7.5, 50 μM ZnCl2, 20 mM KCl and 1 mM dithiothreitol (DTT). The reaction was incubated at […] for 30 min with recombinant Ha-Ras-CVLS (11 μM) and [^3 H]FPP (625 nM; 16.3 Ci/mmol) for FTase, and recombinant Ha-Ras-CVLL (5 μM) and [^3 H]geranylgeranylpyrophosphate (525 nM; 19.0 Ci/mmol) for GGTase I. The peptidomimetics were mixed with FTase and GGTase before adding to the reaction mixture.
Human Burkitt lymphoma (Daudi) cells (ATCC, Rockville, Md.) were grown in suspension in RPMI 1640 medium containing 10% fetal bovine serum (FBS) and 1% Pen-Strep in a humidified 10% CO2 incubator at 37° C. The cells were harvested and sonicated in 50 mM Tris, pH 7.5, 1 mM EDTA, 1 mM EGTA, 25 μg/ml leupeptin, 1 mM phenylmethylsulfonyl fluoride. Homogenates were then spun at 12,000×g and the resulting supernatant further spun at 60,000×g. The supernatant was assayed for both FTase and GGTase I. Briefly, 100 μg of the supernatants was incubated in 50 mM Tris, pH 7.5, 50 μM ZnCl2, 20 mM KCl, 3 mM MgCl2 and 1 mM DTT. For FTase assays, the reaction was incubated at 37° C. for 30 minutes with recombinant H-Ras-CVLS (11 μM) and [^3 H] FPP (625 nM; 16.3 Ci/mmol). For GGTase assays, the reaction was also incubated for 30 minutes at 37° C. but with recombinant H-Ras-CVLL (5 μM) and [^3 H] GGPP (525 nM; 19.0 Ci/mmol). The reaction was stopped and passed through glass fiber filters to separate free and incorporated label. For inhibition studies, the peptidomimetics were premixed with FTase or GGTase I prior to adding the remainder of the reaction mixture. Recombinant H-Ras-CVLS was prepared as described previously (26) from bacteria (31). Recombinant H-Ras-CVLL was prepared from bacteria (32).
FTase and GGTase I activities from 60,000×g supernatants of human Burkitt lymphoma (Daudi) cells (ATCC, Rockville, Md.) were assayed exactly as described previously for FTase (41). Inhibition studies were performed by determining the ability of Ras CAAX peptidomimetics to inhibit the transfer of [^3 H]-farnesyl and [^3 H]-geranylgeranyl from [^3 H]FPP and [^3 H]GGPP to H-ras-CVLS and H-Ras-CVLL, respectively (41).

The subject of another assay is Ras processing. Briefly: Ras processing assay in EJ3 / Ras transformed 3T3 cells (FIG. 16A). Type of assay: cell-based. How it is done:
EJ3 cells were treated with peptidomimetics or vehicle for 20-24 h. Cells were lysed in lysis buffer (10 mM Na2 HPO4, pH 7.25, 150 mM NaCl, 0.1% sodium dodecyl sulfate, 1% Triton X-100, 12 mM sodium deoxycholate, 1 mM NaF, 0.2% NaN3, 2 mM PMSF, 25 μg/ml leupeptin) and the lysates were cleared by spinning at 13,000 rpm for 15 minutes. Ras protein was immunoprecipitated overnight at 4° C. with 50 μg of anti-Ras antibody (Y13-259; hybridoma from ATCC, Rockville, Md.) along with 30 μl Protein A-agarose goat anti-rat IgG complex (oncogene Science, Uniondale, N.Y.). Immunoprecipitates were washed 4 times with lysis buffer and the bound proteins were released by heating for 5 minutes in 40 μl SDS-PAGE sample buffer and subsequently electrophoresed on a 12.5% SDS-PAGE.

Assay [2] has as its target T1, FTase. Briefly: Peptidomimetics farnesylation assay (silica gel TLC). Conditions: Table 4; substrate for farnesylation, TLC. Type of assay: biochemical. How it is done:
The ability of human Burkitt lymphoma (Daudi) FTase to farnesylate peptides and peptidomimetics was determined as described previously (34, 35). Briefly, 25 μl of reaction mixture containing 50 μg of 60,000×g supernatants and 20 μM peptidomimetic in 50 mM Tris, pH 7.5, 50 μM ZnCl2, 20 mM KCl, 3 mM MgCl2, 1 mM DTT and 0.2% octylβ-D-glucoside was incubated for 30 minutes at 37° C., then spotted onto silica gel G TLC sheets (20×20 cm, Brinkmann Instruments), and developed with n-propanol/5 N ammonium hydroxide/water (6:1:1). The dried sheets were sprayed with En^3 Hance (DuPont NEN) and exposed to x-ray film for detection of [^3 H] farnesylated products.

Another assay deals with H-Ras processing. Briefly: Ras processing assay in H-RasF cells (NIH 3T3 transformed with oncogenic H-Ras-CVLS), immunoblot. It counts as cell-based. The settings on record: whole cells; read-out: H-Ras processing IC50. How it is done: H-RasF cells (45) were seeded on day 0 in 100 mm Dishes (costar) in Dulbecco's modified Eagles medium (GIBCO) and allowed to grow to 40-60% confluency. […] On day 3, cells were washed one time with ice cold PBS and were collected and lysed by incubation for 30-60 min on ice in lysis buffer (41). Lysates were cleared (14,000 rpm, 4° C., 15 min) and supernatants collected. Equal amounts of lysate were separated on a 12.5% SDS-PAGE, transfered to nitrocellulose, and a western blot performed using a anti-Ras antibody (Y13-238, ATCC) or anti-Rap1A antibody (Santa Cruz Biotechnology, Santa Cruz, Calif.). Antibody reactions were visualized using peroxidase-conjugated goat anti-rat IgG for Y13-238 and peroxidase-conjugated goat anti-rabbit IgG for Rap1A and an enhanced chemiluminescence detection system (ECL; Amersham Corp.)
H-Ras cells (45) and K-Ras4B Cells (32) were kind gifts from Dr. Channing Der and Dr. Adrienne Cox (University of North Carolina, Chapel Hill). Means of obtaining these cell lines will be easily recognized by the skilled practitioner. Cells were seeded on day 0 in 100 mm dishes in Dulbecco's modified Eagles medium supplemented with 10% calf serum and 1% penicillin-streptomycin. […] On day 3, cells were washed and lysed in lysis buffer containing 50 mM HEPES, pH 7.5, 10 mM NaCl, 1% TX-100, 10% glycerol, 5 mM MgCl2, 1 mM EGTA, 25 μg/ml leupeptin, 2 mM PMSF, 2 mM Na3 VO4, 1 mg/ml soybean trypsin inhibitor, 10 μg/ml aprotinin, 6.4 mg/ml Sigma-104® phosphatase substrate. Lysates were cleared (14,000 rpm, 4° C., 15 min) and equal amounts of protein were separated on a 12.5% SDS-PAGE, transferred to nitrocellulose, and immunoblotted using an anti-Ras antibody (Y13-259, ATCC) or an anti-RapIA antibody (SC-65, Santa Cruz Biotechnology, Santa Cruz, Calif.). Antibody reactions were visualized using either peroxidase-conjugated goat anti-rat 1 gG (for Y13-259), or peroxidase-conjugated goat anti-rabbit 1 gG (for Rap1A) and an enhanced chemiluminescence detection (ECL, Amersham Corp.), as described previously (41).

[3] abbreviates: Table 1, read-out: GGTase I IC50.
The mark [4] stands for this setting: Table 4, read-out: GGTase-I IC50.

Read-outs that look alike come from different tables or passages of the source.

T1 sequence (P49356 whole entry): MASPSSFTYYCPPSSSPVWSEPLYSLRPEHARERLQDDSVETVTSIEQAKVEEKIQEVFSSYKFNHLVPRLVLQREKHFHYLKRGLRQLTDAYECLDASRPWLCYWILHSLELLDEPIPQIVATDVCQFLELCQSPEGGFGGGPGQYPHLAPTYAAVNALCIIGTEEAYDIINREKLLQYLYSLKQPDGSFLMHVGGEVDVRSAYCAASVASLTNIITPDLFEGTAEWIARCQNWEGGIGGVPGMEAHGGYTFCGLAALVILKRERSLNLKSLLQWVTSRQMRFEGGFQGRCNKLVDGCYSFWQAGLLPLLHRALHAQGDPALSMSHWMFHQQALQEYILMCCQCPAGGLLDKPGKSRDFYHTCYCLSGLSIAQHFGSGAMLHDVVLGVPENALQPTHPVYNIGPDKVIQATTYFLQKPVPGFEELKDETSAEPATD
T2 sequence (P53609 whole entry): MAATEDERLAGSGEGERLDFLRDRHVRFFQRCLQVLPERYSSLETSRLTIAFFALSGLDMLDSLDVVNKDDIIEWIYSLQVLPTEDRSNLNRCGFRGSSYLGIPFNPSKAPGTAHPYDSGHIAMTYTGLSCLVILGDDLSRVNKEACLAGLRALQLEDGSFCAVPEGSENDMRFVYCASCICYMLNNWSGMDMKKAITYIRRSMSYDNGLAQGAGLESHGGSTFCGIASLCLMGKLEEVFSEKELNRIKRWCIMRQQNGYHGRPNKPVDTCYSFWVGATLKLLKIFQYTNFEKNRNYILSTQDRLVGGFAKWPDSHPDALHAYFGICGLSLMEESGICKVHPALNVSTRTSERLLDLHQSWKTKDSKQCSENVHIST

The term IC50 denotes the concentration needed to halve the response being measured. `COC(=O)[C@H](CCSC)NC(=O)c1ccc(NC[C@@H](N)CS)cc1` [FTI-254, 4-N-[2(R)-Amino-3-mercaptopropyl]aminobenzoyl methionine methyl ester]: the GG/F on FTase [1] (Table 1) is given as 19. The 50% inhibitory concentration (IC50) at FTase [1] (Table 1, read-out: FTase IC50) is 1000 nM; on GGTase I (setting [3]), 19000 nM. In addition, in the assay on Ras processing (200 μM), the “inhibition of Ras processing” value is “inhibited FTase”.
`N[C@@H](CS)C(=O)NCc1cccc(-c2cccc(C(=O)O)c2)c1` [FTI-238, Cys-3-aminomethyl-3'-carboxybiphenyl]: the Selectivity on FTase [1] (Table 4) is recorded as over 1. Also, the IC50 at FTase [1] (Table 4, read-out: FTase IC50) was 100000 nM; on GGTase I (setting [4]), over 100000 nM. Further, on FTase [2], the Substrate result is given as “no”.
Take `COC(=O)c1cccc(-c2ccc(NC[C@@H](N)CS)cc2)c1` [FTI-259, 4-N-[2(R)-Amino-3-mercaptopropyl]amino-3'-methoxycarbonylbiphenyl]: the Selectivity at FTase [1] (Table 4) amounted to 109. The IC50 on FTase [1] (Table 4, read-out: FTase IC50) was 917 nM; at GGTase I (setting [4]) it was over 100000 nM. The Substrate entry at FTase [2] was “no”.
`Cc1cccc(-c2ccc(NC[C@@H](N)CS)cc2-c2ccccc2)c1` [FTI-285, red.Cys-4-amino-2-phenyl-3'-methylbiphenyl]: on FTase [1] (Table 4), the Selectivity is reported as 4. Besides, the IC50 was found to be 2080 nM at FTase [1] (Table 4, read-out: FTase IC50) and 8500 nM at GGTase I (setting [4]).
On to `COc1cc(NC[C@@H](N)CS)ccc1-c1cccc(C(=O)O)c1` [FTI-281, 2-Methoxy-4-N-[2(R)-amino-3-mercaptopropyl]amino-3'-carboxybiphenyl], for which the Selectivity at FTase [1] (Table 4) amounted to 1090. Moreover, the IC50 worked out at 40 nM at FTase [1] (Table 4, read-out: FTase IC50) and 43600 nM at GGTase I (setting [4]).
Consider `CSCC[C@H](NC(=O)c1ccc(NC[C@@H](N)CS)cc1)C(=O)O` [FTI-249, 4-N-[2(R)-Amino-3-mercaptopropyl]aminobenzoyl methionine], for which the “selectivity for FTase over GGTase I” value on FTase [1] is on record as 15 fold. Moreover, the GG/F on FTase [1] (Table 1) is 15. Also, the IC50 at FTase [1] (Table 1, read-out: FTase IC50) came out at 272 nM; on FTase [1] (Table 4, read-out: FTase IC50), 300 nM; at FTase [1] (read-out: FTase IC50) it was 300 nM; on GGTase I (setting [3]) it was 3970 nM; at GGTase I (setting [4]), 4400 nM; with H-Ras processing, 100000 nM. At FTase [1] (Table 4), the Selectivity was 15. The “inhibition of Ras processing” value with Ras processing (200 μM) and with Ras processing (FIG. 16A) was “did not inhibit Ras processing” throughout.
In the case of `COc1cc(C(=O)NC(CCSC)C(=O)O)ccc1NC(=O)C(N)CS.O=C(O)C(F)(F)F` (stereo not shown) [FTI-261, TFA.Cysteine-4-amino-3-methoxybenzoyl methionine], the GG/F at FTase [1] (Table 1) stood at 20. For the same compound, the IC50 at FTase [1] (Table 1, read-out: FTase IC50) stood at 2550 nM; on GGTase I (setting [3]) it was 50000 nM.
`N[C@@H](CS)CNc1ccc(-c2cccc(C(=O)O)c2)c(-c2ccccc2)c1` [FTI-289, red.Cys-4-amino-2-phenyl-3'-carboxybiphenyl]: the Selectivity on FTase [1] (Table 4) is 40. The IC50 was determined as 16 nM at FTase [1] (Table 4, read-out: FTase IC50) and 643 nM at GGTase I (setting [4]).
As to `N[C@@H](CS)CNc1ccc(-c2ccccc2)cc1` [FTI-268, 4-N-[2(R)Amino-3-Mercaptopropyl]aminobiphenyl], the Selectivity on FTase [1] (Table 4) is given as 93. The IC50 on FTase [1] (Table 4, read-out: FTase IC50) is 1070 nM; on GGTase I (setting [4]) it was over 100000 nM. The Substrate entry on FTase [2] was “no”.
For `CCCOc1cc(NC[C@@H](N)CS)ccc1-c1cccc(C(=O)O)c1` [FTI-288, red.Cys-4-amino-2-OPr-3'-carboxybiphenyl], at FTase [1] (Table 4), the Selectivity came to 59. In addition, the IC50 on FTase [1] (Table 4, read-out: FTase IC50) turned out to be 41 nM; at GGTase I (setting [4]), 2380 nM.
Take `CC(C)C[C@H](NC(=O)c1ccc(NC[C@@H](N)CS)cc1-c1ccccc1)C(=O)O` [GGTI-287, 4-[2(R)-amino-3-mercaptopropyl]amino-2-phenylbenzoyl-(S)-leucine]: the IC50 came to 25 nM on FTase [1] (Table 5, read-out: In Vitro IC50 FTase); 5 nM at GGTase I (Table 5, read-out: In Vitro IC50 GGTase I); 5 nM on GGTase I (read-out: GGTase I IC50). Also, the “selectivity for GGTase I over FTase” value on GGTase I came out at 5 fold.

These data come from patent US5965539A, “Inhibitors of prenyl transferases” (Univeristy of Pittsburgh, priority 1996, dated 1999).
